Measured values published in patent US20220356174A1, “PYRIDIN-2-ONE COMPOUNDS USEFUL AS SMARCA2 ANTAGONISTS” (Epizyme, Inc., priority 2018, published 2022).
pIC50: −log10 of the molar value. Like-named read-outs stand apart in the source and are kept apart here.

Key:
H358 cells = test: High-throughput proliferation (HTP) assay for H358 cells (CellTiter-Glo, 7 days); type: cell-based; details: Homo sapiens, NCI-H358, 168 h, read-out: H358 SMARCA2 IC50
Procedure: Thawing vials: H358 cells (ATCC #CRL-5807™) were thawed from a cryovial containing approximately 1.6×10^6 cells frozen in 70% RPMI 1640 medium, 20% HI-FBS and 10% DMSO. Cells were thawed by submerging the bottom half of the vial in a 37° C. water bath and gently flicked until almost thawed. The cells were removed and transferred into a 15 mL conical tube containing 9 mL RPMI 1640 medium+10% HI-FBS and then centrifuged 200×g for 4 min before drawing off the media without disturbing the cell pellet to remove the DMSO. The cells were resuspended again in 15 mL of RPMI 1640 fresh complete media+10% HI-FBS and grown up in a T75 flask at 37° C. with 5% CO2 Incubator. Viability was measured to obtain baseline.
Preparing frozen stock vials: Cell density was counted in a stock flask. The culture was transferred to a 50 mL conical tube and spun down to remove medium, and then resuspend at 1-2×10^6 cells/mL in complete medium containing 10% DMSO and transferred to a 1 mL per vial.
(§1) Routine subculture: Sub-confluent cultures (70-80%) were split every 4 days, seeding out at 1-2×10^6 cells/75 cm^2.
Day 0: Assay ready plates were prepared by dispensing 50 nL of compound stock or DMSO in the appropriate wells of 384-well white CulturPlates using Echo550. Using the Multiflo, H358 cells at 50 μL/well were plated in RPMI 1640 complete media+10% HI-FBS+1% pen/strep at cell density determined [20,000 cells/mL (1,000 cells/well)] from growth curve. Treated cells were inclubated at 37° C., 5% CO2, relative humidity >90% for 7 days. CellTiter-Glo (CTG) ATP detection reagent was prepared according to manufacturer's specifications. Cell assay plates were removed from incubator and bring to room temperature (RT).
Using the MultiDrop liquid handler, 30 μL of CTG were added per well. Plates were placed on the multidrop dispenser shake for 5 seconds at RT. Plates were incubated for 30 minutes in the dark at RT before measuring luminescence using the Envison2104.
Data analysis: Using the DMSO control wells as the 0% inhibition (high signal) control and the 10 uM Doxorubicin control wells as the 100% inhibition (low signal) control, percent inhibition EC50s (inflection point) and IC50s were calculated for the compound dose responses.

A549 cells = test: High-throughput proliferation (HTP) assay for A549 cells (CellTiter-Glo, 7 days); type: cell-based; details: Homo sapiens, 168 h, read-out: A549 SMARCA2 IC50
Procedure: Thawing vials: A549 cells (ATCC #CCL-185™) were thawed from a cryovial containing approximately 1.6×10^6 cells frozen in 70% F12K medium, 20% HI-FBS and 10% DMSO. Cells were thawed by submerging the bottom half of the vial in a 37° C. water bath and gently flicked until almost thawed. The cells were transferred into a 15 mL conical tube containing 9 mL of F12K medium+10% HI-FBS and then centrifuged at 200×g for 4 min before drawing off the media without disturbing the cell pellet in order to remove the DMSO. The cells were resuspended again in 15 mL of F12K fresh complete media+10% HI-FBS and grown up in a T75 flask at 37° C. with 5% CO2 Incubator. Viability was measured to obtain baseline.
Frozen stock vials preparation: The cell culture was transferred to a 50 mL conical tube, spun down to remove medium, and resuspended at 1-2×10^6 cells/mL in complete medium containing 10% DMSO. The culture was then stored for 24 hours at −80 degree C., (with the initial rate of freezing is −1 degree C. per minute in a freezing container), then transferred and stored in liquid nitrogen.
as §1
Day 0: Assay ready plates were prepared by dispensing 50 nL of compound or DMSO in the appropriate wells of 384-well white CulturPlates using Echo550. Using the Multiflo, A549 cells were plated at 50 μL/well in F12K complete media+10% HI-FBS+1% pen/strep at cell density determined [1,250 cells/mL (62.5 cells/well)] from growth curve.
Treated cells were incubated at 37° C., 5% CO2, relative humidity >90% for 7 days. CellTiter-Glo (CTG) ATP detection reagent was prepared according to manufacturer's specifications. Cell assay plates were removed from the incubator and brought to room temperature (RT). Using the MultiDrop liquid handler, 30 μL of CTG were added per well. Plates were placed on the multidrop dispenser shake for 5 seconds at room temperature (RT). Plates were incubated for 30 minutes in the dark at RT before measuring luminescence using the Envison2104.
Data analysis: Using the DMSO control wells as the 0% inhibition (high signal) control and the 10 μM Doxorubicin control wells as the 100% inhibition (low signal) control, percent inhibition EC50s (inflection point) and IC50 s were calculated for the compound dose responses.

FL-SMARCA4 = FL-SMARCA4 (Homo sapiens, UniProt P51532); test: SMARCA4 ATPase activity assay (ADP-Glo, chicken mononucleosome substrate)
Sequence of FL-SMARCA4 (P51532 whole entry, canonical isoform): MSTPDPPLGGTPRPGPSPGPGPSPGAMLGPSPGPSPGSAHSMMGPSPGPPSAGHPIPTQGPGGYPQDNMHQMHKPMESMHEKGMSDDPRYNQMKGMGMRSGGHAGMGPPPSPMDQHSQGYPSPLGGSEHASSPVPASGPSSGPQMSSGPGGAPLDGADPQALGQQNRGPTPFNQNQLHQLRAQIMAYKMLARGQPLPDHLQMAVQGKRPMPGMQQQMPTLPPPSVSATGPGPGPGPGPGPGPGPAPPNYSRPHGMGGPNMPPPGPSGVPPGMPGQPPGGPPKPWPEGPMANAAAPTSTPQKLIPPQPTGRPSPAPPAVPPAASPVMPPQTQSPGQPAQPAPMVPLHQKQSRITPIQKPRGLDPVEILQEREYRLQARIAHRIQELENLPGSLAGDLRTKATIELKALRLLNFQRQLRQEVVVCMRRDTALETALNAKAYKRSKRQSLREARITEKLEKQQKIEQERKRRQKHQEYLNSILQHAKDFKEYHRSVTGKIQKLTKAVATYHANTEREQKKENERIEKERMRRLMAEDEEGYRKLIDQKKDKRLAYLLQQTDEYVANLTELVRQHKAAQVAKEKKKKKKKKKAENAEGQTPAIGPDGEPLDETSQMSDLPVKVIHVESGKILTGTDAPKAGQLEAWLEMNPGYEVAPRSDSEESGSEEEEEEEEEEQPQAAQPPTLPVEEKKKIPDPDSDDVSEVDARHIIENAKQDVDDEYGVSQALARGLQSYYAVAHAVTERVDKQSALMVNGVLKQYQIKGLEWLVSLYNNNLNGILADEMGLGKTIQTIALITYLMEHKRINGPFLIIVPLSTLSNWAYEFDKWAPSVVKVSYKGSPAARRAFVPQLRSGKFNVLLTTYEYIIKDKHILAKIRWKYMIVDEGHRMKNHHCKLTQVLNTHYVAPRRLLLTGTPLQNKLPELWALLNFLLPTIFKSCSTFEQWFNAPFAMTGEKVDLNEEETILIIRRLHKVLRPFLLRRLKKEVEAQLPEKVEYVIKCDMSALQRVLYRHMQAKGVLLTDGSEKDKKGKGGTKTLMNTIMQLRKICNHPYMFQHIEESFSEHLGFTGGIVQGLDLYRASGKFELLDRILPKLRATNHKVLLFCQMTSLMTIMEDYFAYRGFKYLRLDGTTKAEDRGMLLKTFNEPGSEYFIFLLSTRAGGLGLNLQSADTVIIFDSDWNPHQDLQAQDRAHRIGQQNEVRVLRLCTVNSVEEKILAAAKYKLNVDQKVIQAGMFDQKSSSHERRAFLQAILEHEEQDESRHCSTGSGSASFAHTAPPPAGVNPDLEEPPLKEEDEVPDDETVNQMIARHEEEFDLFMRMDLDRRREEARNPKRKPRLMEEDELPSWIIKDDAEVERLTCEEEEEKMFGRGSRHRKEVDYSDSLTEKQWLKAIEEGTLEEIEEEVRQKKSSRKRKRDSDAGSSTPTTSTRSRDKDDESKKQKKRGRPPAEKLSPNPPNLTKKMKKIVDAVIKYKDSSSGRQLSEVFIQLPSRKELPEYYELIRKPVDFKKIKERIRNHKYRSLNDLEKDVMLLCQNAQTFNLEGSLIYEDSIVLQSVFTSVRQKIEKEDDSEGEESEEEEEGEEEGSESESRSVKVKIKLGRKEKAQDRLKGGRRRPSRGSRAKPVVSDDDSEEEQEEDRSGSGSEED

[1] = target: T1, FL-SMARCA2 (full-length human SMARCA2 isoform 1) (Homo sapiens, UniProt P51531); test: SMARCA2 ATPase activity assay (ADP-Glo, chicken mononucleosome substrate); type: biochemical; details: ATPase assay, enzyme 5 nM, ATP 250 uM, chicken mononucleosome 10 nM, 30 min preincubation
T1 construct: FLAG tag (YKDDDDK) (C); made in house; host or cells: Sf21 insect cells (baculovirus, pFastBacI)
T1 sequence (P51531 with tags, fused parts or gaps): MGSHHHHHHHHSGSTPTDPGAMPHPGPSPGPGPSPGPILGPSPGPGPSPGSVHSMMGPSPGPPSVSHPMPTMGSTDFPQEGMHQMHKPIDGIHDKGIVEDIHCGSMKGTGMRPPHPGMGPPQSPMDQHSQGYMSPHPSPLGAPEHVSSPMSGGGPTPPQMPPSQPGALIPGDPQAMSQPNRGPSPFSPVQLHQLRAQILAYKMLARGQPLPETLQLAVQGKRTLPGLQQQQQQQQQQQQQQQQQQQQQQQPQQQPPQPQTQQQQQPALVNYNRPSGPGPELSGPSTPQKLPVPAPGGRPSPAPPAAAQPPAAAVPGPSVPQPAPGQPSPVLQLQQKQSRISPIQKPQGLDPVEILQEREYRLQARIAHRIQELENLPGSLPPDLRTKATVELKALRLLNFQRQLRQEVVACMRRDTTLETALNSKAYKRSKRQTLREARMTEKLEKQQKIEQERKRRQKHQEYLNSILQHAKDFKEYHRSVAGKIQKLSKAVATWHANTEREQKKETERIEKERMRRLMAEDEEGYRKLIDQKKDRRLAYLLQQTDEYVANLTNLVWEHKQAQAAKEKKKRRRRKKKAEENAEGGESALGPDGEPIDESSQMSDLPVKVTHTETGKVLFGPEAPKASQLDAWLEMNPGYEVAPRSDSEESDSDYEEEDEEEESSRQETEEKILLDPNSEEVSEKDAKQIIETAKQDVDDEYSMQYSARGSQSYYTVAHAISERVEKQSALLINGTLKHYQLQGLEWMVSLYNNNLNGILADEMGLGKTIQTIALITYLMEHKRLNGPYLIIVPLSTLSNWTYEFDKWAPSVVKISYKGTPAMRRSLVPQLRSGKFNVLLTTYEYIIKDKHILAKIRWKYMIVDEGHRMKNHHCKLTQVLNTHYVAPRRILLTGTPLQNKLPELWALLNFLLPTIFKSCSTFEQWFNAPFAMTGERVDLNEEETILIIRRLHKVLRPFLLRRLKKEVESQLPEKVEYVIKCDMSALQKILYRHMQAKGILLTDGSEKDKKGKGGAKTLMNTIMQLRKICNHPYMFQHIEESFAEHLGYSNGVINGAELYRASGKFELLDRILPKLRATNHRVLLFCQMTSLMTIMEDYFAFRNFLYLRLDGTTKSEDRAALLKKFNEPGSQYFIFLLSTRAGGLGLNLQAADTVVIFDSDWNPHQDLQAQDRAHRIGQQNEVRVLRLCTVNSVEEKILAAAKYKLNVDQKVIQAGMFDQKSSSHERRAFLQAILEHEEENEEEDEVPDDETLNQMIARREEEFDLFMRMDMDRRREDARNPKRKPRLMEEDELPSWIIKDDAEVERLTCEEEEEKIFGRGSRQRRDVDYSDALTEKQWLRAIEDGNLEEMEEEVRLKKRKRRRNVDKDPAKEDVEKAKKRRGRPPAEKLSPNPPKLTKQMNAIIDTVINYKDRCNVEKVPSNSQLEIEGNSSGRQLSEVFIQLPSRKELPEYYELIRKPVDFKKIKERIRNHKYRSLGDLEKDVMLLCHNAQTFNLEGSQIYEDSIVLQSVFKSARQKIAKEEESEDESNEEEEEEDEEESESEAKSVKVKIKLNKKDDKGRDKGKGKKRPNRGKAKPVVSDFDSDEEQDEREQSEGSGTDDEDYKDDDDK

[2] = FL-SMARCA4 IC>50, Table 3c.2, ATPase assay, enzyme 5 nM, ATP 250 uM, chicken mononucleosome 10 nM, 30 min preincubation
[3] = Table 3d.1, read-out: FL-SMARCA2 IC>50

Structure (SMILES)	pIC50 (H358 cells)	pIC50 (A549 cells)	pIC50 (FL-SMARCA4; [2])	pIC50 ([1]; Table 3c.1)	pIC50 (FL-SMARCA4; FL-SMARCA4 IC50)	pIC50 [1, 3]
NC(=O)c1nc(C#Cc2cc(C(=O)Nc3cc(F)c(=O)n(CC(F)F)c3)sc2Cl)cs1 [Compound 111c]	< 5.00	5.71	7.58	7.98		
NC(=O)c1cccc(C#Cc2cc(C(=O)Nc3cc(F)c(=O)n(CC(F)F)c3)sc2Cl)c1 [Compound 57c]	< 5.00	5.44	7.00	7.68		
O=C(Nc1cc(F)c(=O)n(CC(F)F)c1)c1cc(C#CC2COC2)cs1 [Compound 73c]	< 5.00	5.22	5.53	6.07		
O=C(Nc1cc(F)c(=O)n(CC(F)F)c1)c1cc(C#C[C@H]2C[C@H](O)C2)c(Cl)s1 [Compound 73d]	< 5.00	5.74			7.49	7.96
O=C(Nc1cc(F)c(=O)n(CC(F)F)c1)c1cc(/C=C/c2cccnc2)c(Cl)s1 [Compound 95c]	< 5.00	< 5.00	5.24	6.22		
Nc1cc(C#Cc2cc(C(=O)Nc3cc(F)c(=O)n(CC(F)F)c3)sc2Cl)ccn1 [Compound 124c]	5.14	5.97	7.75	7.96		
NC(=O)c1ccc(C#Cc2cc(C(=O)Nc3cc(F)c(=O)n(CC(F)F)c3)sc2Cl)cc1 [Compound 68c]	< 5.00	5.23	6.92	7.17		
O=C(Nc1ccc(=O)n(CC(F)F)c1)c1cc(Cl)c(C(F)(F)F)s1 [Compound 72c]	< 5.00	5.35	5.81	6.68		
Cc1cc(NC(=O)c2cc(C#N)c(C(F)(F)F)s2)cn(CC(F)F)c1=O [Compound 75d]	< 5.00	< 5.00			4.95	6.02
Cc1cc(C#Cc2cc(C(=O)Nc3cc(F)c(=O)n(CC(F)F)c3)sc2Cl)on1 [Compound 63c]	< 5.00	5.64	7.00	7.48		
CC(F)(F)c1sc(C(=O)Nc2cc(F)c(=O)n(CC(F)F)c2)cc1C#N [Compound 83d]	< 5.00	< 5.00			5.62	6.33
Cn1ccc(C#Cc2cc(C(=O)Nc3cc(F)c(=O)n(CC(F)F)c3)sc2Cl)cc1=O [Compound 65d]	< 5.00	< 5.00			5.11	5.63
CN(C)C(=O)C#Cc1cc(C(=O)Nc2cc(F)c(=O)n(CC(F)F)c2)sc1Cl [Compound 71d]	5.39	5.62			5.90	6.27
Cc1cnc(C#Cc2cc(C(=O)Nc3cc(F)c(=O)n(CC(F)F)c3)sc2Cl)o1 [Compound 71c]	< 5.00	5.71	6.52	7.04		
Cn1cc(C#Cc2cc(C(=O)Nc3cc(C#N)c(=O)n(CC(F)F)c3)sc2Cl)cn1 [Compound 93d]	< 5.00	5.41			6.83	7.37
CC(=O)NC1COCC(C#Cc2cc(C(=O)Nc3cc(F)c(=O)n(CC(F)F)c3)sc2Cl)C1 (centres unmarked) [Compound 57d]	< 5.00	< 5.00			6.72	7.29
O=C(Nc1cc(F)c(=O)n(CC(F)F)c1)c1cc(C#CC2CCCNC2)c(Cl)s1 (centres unmarked) [Compound 108d]	< 5.00	< 5.00			5.75	6.27
N#Cc1sc(C(=O)Nc2cc(F)c(=O)n(CC(F)F)c2)cc1C#C[C@H]1C[C@H](O)C1 [Compound 104d]	< 5.00	5.36			7.09	7.52
O=C(Nc1cc(F)c(=O)n(CC(F)F)c1)c1cc(C#C[C@H]2CCOC2)c(Cl)s1 [Compound 78c]	< 5.00	5.80	6.59	7.01		
O=C(Nc1cc(F)c(=O)n(CC(F)F)c1)c1cc(C#Cc2ccc3cncn3c2)c(Cl)s1 [Compound 96d]	< 5.00	5.35			7.01	7.42
